Test results as given in patent US6593374B2, “Tubulin binding ligands and corresponding prodrug constructs” (Baylor University, priority 2000, dated 2003).
≈ marks a conversion by molar mass, not a printed value. Like-named read-outs stand apart in the source and are kept apart here.

Tests used:
DU-145 = assay: Growth inhibition, human cancer cell line DU-145 (SRB); type: cell-based; conditions: Prostate, 48 hours
Procedure: (§1) Several of the compounds described in this application were evaluated in terms of growth inhibitory activity against several human cancer cell lines, including pancreas, breast, CNS, lung-NSC, colon, and prostate lines. The assay used is described in Monks et al.^32 Briefly, the cell suspensions, diluted according to the particular cell type and the expected target cell density (5,000-40,000 cells per well based on cell growth characteristics), were added by pipet (100 μl) to 96-well microtiter plates. Inoculates were allowed a preincubation time of 24-28 hours at 37° C. for stabilization. Incubation with the inhibitor compounds lasted for 48 hours in 5% CO2 atmosphere and 100% humidity. Determination of cell growth was done by in situ fixation of cells, followed by staining with a protein-binding dye, sulforhodamine B (SRB), which binds to the basic amino acids of cellular macromolecules. The solubilized stain was measured spectrophotometrically.

KM20L2 = assay: Growth inhibition, human cancer cell line KM20L2 (SRB); type: cell-based; conditions: 48 hours
Procedure: as §1

MCF-7 = assay: Growth inhibition, human cancer cell line MCF-7 (SRB); type: cell-based; conditions: 48 hours
Procedure: as §1

NCI-H460 = assay: Growth inhibition, human cancer cell line NCI-H460 (SRB); type: cell-based; conditions: Lung-NSC, 48 hours
Procedure: as §1

BXPC-3 = assay: Growth inhibition, human cancer cell line BXPC-3 (SRB); type: cell-based; conditions: Pancreas-a, 48 hours
Procedure: as §1

purified tubulin [1] = system: T1, purified tubulin; assay: Inhibition of tubulin polymerization assay; type: biochemical, bovine; conditions: for IC50: read-out: IC50, in vitro inhibition of tubulin polymerization, purified bovine brain tubulin 1.5 mg/ml, 15 min preincubation at 37° C., GTP-induced, 350 nm
T1 construct: other: purified bovine brain tubulin 1.5 mg/ml, 15 min preincubati
Procedure: After the incubation period, the reaction was cooled and GTP was added to induce tubulin polymerization. Polymerization was then monitored in a Gilford spectrophotometer at 350 nm. The final reaction mixtures (0.25 ml) contained 1.5 mg/ml tubulin, 0.6 mg/ml microtubule-associated proteins (MAPs), 0.5 mM GTP, 0.5 mM MgCl2, 4% DMSO and 0.1M 4-morpholineethanesulfonate buffer (MES, pH 6.4).

SF-268 = assay: Growth inhibition, human cancer cell line SF-268 (SRB); type: cell-based; conditions: CNS Gliobl, 48 hours
Procedure: as §1

human cancer cells = assay: Cytotoxicity against human cancer cells; type: cell-based
FADU = assay: Growth inhibition, human cancer cell line FADU (SRB); type: cell-based; conditions: Pharynx-sqam, 48 hours
Procedure: as §1

OVCAR-3 = assay: Growth inhibition, human cancer cell line OVCAR-3 (SRB); type: cell-based; conditions: Ovarian, 48 hours
Procedure: as §1

SF-295 = assay: Growth inhibition, human cancer cell line SF-295 (SRB); type: cell-based; conditions: CNS, 48 hours
Procedure: as §1

P388 leukemia cells = assay: Cytotoxicity assay with P388 leukemia cells; type: cell-based
NCI 60 cell line panel = assay: NCI 60 cell line panel; type: cell-based; conditions: Homo sapiens
MHEC = assay: In vivo tumor growth control in scid mice after MHEC inoculation; conditions: female scid mice, single dose ip 400 mg/kg, one week after MHEC inoculation (1×10^6/mouse)
Procedure: Female scid mice were single dose ip administered with CA-4P, and benzo[b]thiophene phosphate prodrug at 400 mg/kg (i.e., MDT of CA-4P) after one week of MHEC inoculation (1×10^6/mouse) (FIG. 20). Studies were carried out through a collaboration with professors Ronald W. Pero and Klaus Edvardsen, University of Lund, Sweden

purified tubulin [2] = conditions: previously described compounds; cited from earlier work
[3] = cited from earlier work
tumor vasculature = conditions: cited from earlier work
[4] = Homo sapiens, KM-20L2, Colon, read-out: GI50
[5] = Homo sapiens, MCF7, Breast adn, read-out: GI50

COc1ccc2c(c1)CCCC2(O)c1cc(OC)c(OC)c(OC)c1 (stereo not drawn) [Compound 14A]
GI50 (DU-145; Homo sapiens, read-out: GI50): 0.38 µg/mL (≈ 1.1 µM)
GI50 (KM20L2; [4]): 0.11 µg/mL (≈ 0.319 µM)
GI50 (MCF-7; [5]): 0.043 µg/mL (≈ 0.125 µM)
GI50 (NCI-H460; Homo sapiens, read-out: GI50): 0.16 µg/mL (≈ 0.465 µM)
GI50 (BXPC-3; Homo sapiens, read-out: GI50): 0.13 µg/mL (≈ 0.377 µM)
IC50 (purified tubulin [1]): 1000 to 4000 nM
GI50 (SF-268): 0.67 µg/mL (≈ 1.95 µM)

C#CC=CC#CC(=O)c1cc(OC)c(OC)c(OC)c1 [Compound 30, 1-(3,4,5-trimethoxybenzoyl)-(Z)-3-ene-1,5-hexadiyne]
GI50 (DU-145; Homo sapiens, read-out: GI50): 0.54 µg/mL (≈ 2 µM)
cytotoxicity (in words) (human cancer cells): strong cytotoxicity
GI50 (FADU): 0.95 µg/mL (≈ 3.51 µM)
GI50 (OVCAR-3): 0.53 µg/mL (≈ 1.96 µM)
GI50 (SF-295; Homo sapiens, read-out: GI50): 1.7 µg/mL (≈ 6.29 µM)
GI50 (NCI-H460; Homo sapiens, read-out: GI50): 1.7 µg/mL (≈ 6.29 µM)
GI50 (BXPC-3; Homo sapiens, read-out: GI50): 1.4 µg/mL (≈ 5.18 µM)
inhibition of tubulin polymerization (in words) (purified tubulin [1]): excellent inhibition of tubulin polymerization
IC50 (purified tubulin [1]): 2000 to 4000 nM

CCOP(=O)(Nc1c(OC)ccc2c1CCC=C2c1cc(OC)c(OC)c(OC)c1)OCC [Compound 16, 6-methoxy-1-(3′,4′,5′-trimethoxyphenyl)-5-diethylphosphoramidate-3,4-dihydronaphthalene]
GI50 (DU-145; Homo sapiens, read-out: GI50): 2.8 µg/mL (≈ 5.86 µM)
ED50 (effective dosage required to inhibit 50% of cell growth) (P388 leukemia cells): 20.4 µg/mL
GI50 (KM20L2; [4]): 2.5 µg/mL (≈ 5.24 µM)
GI50 (MCF-7; [5]): 3 µg/mL (≈ 6.28 µM)
GI50 (SF-295; Homo sapiens, read-out: GI50): 2.2 µg/mL (≈ 4.61 µM)
GI50 (NCI-H460; Homo sapiens, read-out: GI50): 3.4 µg/mL (≈ 7.12 µM)
GI50 (BXPC-3; Homo sapiens, read-out: GI50): 2 µg/mL (≈ 4.19 µM)
IC50 (purified tubulin [1]): > 40000 nM

COc1ccc2scc(OC)c2c1OC [Compound 1, 3,4,5-trimethoxybenzo[b]thiophene]
cytotoxicity (in words) (human cancer cells): potent cytotoxicity
GI50 (NCI 60 cell line panel): 263 nM
inhibition of tubulin polymerization (in words) (purified tubulin [1]): inhibition of tubulin polymerization

COc1ccc2c(C(=O)c3cc(OC)c(OC)c(OC)c3)c(-c3ccc(OC)c(OP(=O)([O-])[O-])c3)sc2c1.[Na+].[Na+] [Compound 3, 3-(3′,4′,5′-trimethoxybenzoyl)-2-(3′-sodiumphosphate-4′-methoxyphenyl)-6-methoxybenzo[b]thiophene]
GI50 (DU-145): 0.045 µg/mL
GI50 (KM20L2; Colon): 0.22 µg/mL
GI50 (MCF-7; Breast adn): 0.028 µg/mL
GI50 (SF-295): 0.11 µg/mL
GI50 (NCI-H460): 0.035 µg/mL
tumor growth control (FIG. 20) (MHEC): remarkable activity in terms of tumor growth control
GI50 (BXPC-3): 0.35 µg/mL
IC50 (purified tubulin [1]): 1000 to 4000 nM

COc1ccc(/C=C\c2cc(OC)c(OC)c(OC)c2)cc1O [Combretastatin A-4]
inhibition of tubulin polymerization (in words) (purified tubulin [2]): potent inhibitor of tubulin polymerization
water solubility (in words) [3]: poor water solubility
destruction of tumor vasculature (in words) (tumor vasculature): does not demonstrate destruction of tumor vasculature

COc1ccc(/C=C\c2cc(OC)c(OC)c(OC)c2)cc1OP(=O)([O-])[O-].[Na+].[Na+] [CSA-4 prodrug]
destruction of tumor vasculature (in words) (tumor vasculature): very active in terms of tumor vasculature destruction
